From patent US9394299B2, “Rilyazine derivatives and compositions for the treatment of cancer” (Warner Babcock Institute for Green Chemistry, LLC, priority 2013, dated 2016)
“Also recorded” adds a separate entry of the source. Read-outs that look alike come from different tables or passages of the source.

Test system: 60 cell lines (human tumor cell lines of the cancer screening panel)
Assay: NCI 60 cell line screening, single point dosing at 10 μM (SRB)
Type: cell-based
Conditions: for GI50: Homo sapiens, read-out: GI50 (NCI Results, single point, 10 μM); for Delta of Growth Percent across all cell lines / Mean Growth Percent across all cell lines: single dose 10^−5 M
Description: The screening is a two-stage process, beginning with the evaluation of all compounds against 60 cell lines at a single dose of 10^−5 M.
The human tumor cell lines of the cancer screening panel are grown in RPMI 1640 medium containing 5% fetal bovine serum and 2 mM L-glutamine. Cells are inoculated into 96 well microtiter plates in 100 μL at plating densities ranging from 5,000 to 40,000 cells/well depending on the doubling time of individual cell lines. After cell inoculation, the microtiter plates are incubated at 37° C., 5% CO2, 95% air and 100% relative humidity for 24 h prior to addition of experimental drugs.
After 24 h, two plates of each cell line are fixed in situ with TCA, to represent a measurement of the cell population for each cell line at the time of drug addition Time Zero (Tz). Experimental drugs are solubilized in dimethyl sulfoxide:glycerol 9:1 at 400-fold the desired final maximum test concentration and stored frozen at −70° C. prior to use. At the time of drug addition, an aliquot of frozen concentrate is thawed and diluted to twice the desired final maximum test concentration with complete medium containing 50 μg/ml gentamicin. Additional four, 10-fold or ½ log serial dilutions are made to provide a total of five drug concentrations plus control. Aliquots of 100 μl of these different drug dilutions are added to the appropriate microtiter wells already containing 100 μl of medium, resulting in the required final drug concentrations.
Positive control is prepared by adding the known anti-tumor agent adriamycin, NSC 123127, prepared and stored the same as the compounds for testing.
Following drug addition, the plates are incubated for an additional 48 h at 37° C., 5% CO2, 95% air, and 100% relative humidity. For adherent cells, the assay is terminated by the addition of cold TCA. Cells are fixed in situ by the gentle addition of 50 μl of cold 50% (w/v) TCA (final concentration, 10% TCA) and incubated for 60 minutes at 4° C. The supernatant is discarded, and the plates are washed five times with tap water and air dried. Sulforhodamine B (SRB) solution (100 μl) at 0.4% (w/v) in 1% acetic acid is added to each well, and plates are incubated for 10 minutes at room temperature. After staining, unbound dye is removed by washing five times with 1% acetic acid and the plates are air dried. Bound stain is subsequently solubilized with 10 mM trizma base, and the absorbance is read on an automated plate reader at a wavelength of 515 nm. For suspension cells, the methodology is the same except that the assay is terminated by fixing settled cells at the bottom of the wells by gently adding 50 μl of 80% TCA (final concentration, 16% TCA).
For the 1-dose 60 cell testing, the Growth Percent is calculated for each cell line/drug combination from the absorbance measurement for the no-drug control (C), the absorbance at time zero (Tz) and the absorbance measurement after incubation of the cells in the presence of drug (Ti): Growth Percent=[(Ti−Tz)/(C−Tz)]×100 for cell line/drug combinations for which Ti≧Tz. Growth Percent=[(Ti−Tz)/Tz]×100 for cell line/drug combinations for which Ti<Tz.
Calculation of the Growth Percent by these equations allows detection of both growth inhibition (Growth Percent values between 0 and 100) and lethality (Growth Percent values less than 0). For example, a Growth Percent value of 100 means no growth inhibition. A Growth Percent value of 40 would mean 60% growth inhibition. A Growth Percent value of 0 means no net growth over the course of the experiment, or “cytostatic”, no change by growth or cell death. A Growth Percent value of −40 would mean 40% lethality. A Growth Percent value of −100 means all cells are dead.
For 1-dose 60 cell testing, the Mean Growth Percent, Delta and Range across all 60 cell lines are also calculated. The Deviation of each cell line/drug combination from the Mean is also calculated and plotted: Deviation=Mean Growth Percent−Growth Percent […]

[1] = single point 10 μM, 60 cell lines

Row | Compound | GI50 (60 cell) [µM] | Delta of Growth Percent across all cell lines (60 cell lines) | Mean Growth Percent across all cell lines (60 cell lines) [%] | anti-proliferative effect / growth inhibition (in words) [1] | GI50 [1] [µM]
1 | O=c1c2cccnc2c(-c2ccccn2)nn1C1CCCCC1 [RL-1, 6-cyclohexyl-8-(pyridin-2-yl)pyrido[2,3-d]pyridazin-5(6H)-one] | > 10 | 11.75 | 104.31 | little to no effect on cell growth; also recorded: little to no appreciable anti-proliferative effects | 
2 | S=c1c2cccnc2c(-c2ccccn2)nn1C1CCCCC1 [RL-2, 6-cyclohexyl-8-(pyridin-2-yl)pyrido[2,3-d]pyridazine-5(6H)-thione] |  | 30.65 | 99.96 | little to no effect on cell growth; also recorded: little to no appreciable anti-proliferative effects | > 10
3 | O=c1c2ncccc2c(-c2ccccn2)nn1C1CCCCC1 [RL-3, 7-Cyclohexyl-5-(pyridin-2-yl)pyrido[2,3-d]pyridazin-8(7H)-one] | > 10 | 24.63 | 101.11 | little to no effect on cell growth; also recorded: little to no appreciable anti-proliferative effects | 
